# According to patent publication US11786592B2, “Compositions of cardiolipin adjuvants and methods of use thereof” (The University of Hong Kong, priority 2021, dated 2023):
# Columns and labels:
# [1] = system: BALB/c mice immunized with human quadrivalent influenza vaccine; type: in vivo
# [2] = system: BALB/c mice immunized with human quadrivalent influenza vaccine; type: in vivo; conditions: 16 days post-immunization; flow cytometry; vaccine plus cardiolipin compared to vehicle or vaccine only; FIG. 3A-3H
smiles,measurement,setting,value
CCCCC/C=C\C/C=C\CCCCCCCC(=O)OC[C@H](COP(=O)([O-])OCC(O)COP(=O)([O-])OC[C@@H](COC(=O)CCCCCCC/C=C\C/C=C\CCCCC)OC(=O)CCCCCCC/C=C\C/C=C\CCCCC)OC(=O)CCCCCCC/C=C\C/C=C\CCCCC.[Na+].[Na+] (stereo partly shown) [cardiolipin (C18:2)4],accelerated seroconversion (time post-immunization),"[1]; 100 μg/kg cardiolipin (C18:2)4 mixed with […] TETRA vaccine (1 microgram HA), intramuscular and subcutaneous, cardiolipin booster at day 10, compared to vehicle or vaccine only",7 days
same,vaccine antigen-specific antibodies in sera,"[1]; 13 days post-immunization, 100 μg/kg cardiolipin (C18:2)4 with vaccine, compared to vehicle or vaccine only, FIG. 2A-2B (IgM, IgG)",significantly higher
same,subclasses of virus-specific antibodies elicited (Th1/Th2 response),"[1]; serum IgG, IgG1, IgG2a, IgG2b by ELISA, FIG. 2C-2F","elicited both IgG2a and IgG1 subclasses of virus-specific antibodies, indicating a balanced Th1/Th2 response"
same,"cells producing the examined cytokines (IFN-γ, IL-4 and IL-17A) in inguinal lymph nodes",[2],significant increase
